Reference: patent US20260216147A1, “USE OF A THIENOPYRIDONE DERIVATIVE IN THE TREATMENT OF DIABETIC NEPHROPATHY” (POXEL, priority 2020, published 2026)

Assays:
[1] = background statement; cited from earlier work
[2] = background statement; cited from earlier work; remark: listed apart in the source
[3] = test system: preclinical model of diabetic nephropathy; conditions: K. O. Cameron et al., J. Med. Chem. 2016; cited from earlier work
obese ZSF1 rats [4] = test: Glomerular filtration rate (FITC-sinistrin, transcutaneous) in obese ZSF1 rats; type: in vivo, rat; conditions: 150 mg/kg oral gavage twice a day, 90 days (24 weeks of age), vs untreated ZSF1 rats
Description: (§1) ZSF1 rat is a Leptin-resistant, obese, hypertensive Zucker diabetic fatty/Spontaneously hypertensive heart failure F1 hybrid (ZSF1) rat. The obese ZSF1 rat is described as a relevant pre-clinical model for the study of renal function decline to end stage renal disease in the setting of type 2 diabetes (Dower K et al., PLOS ONE 2017; 12 (7): e0181861).
(§2) Obese ZSF1 rats and lean ZSF1 (Lean) were 12-week-old at the time of treatment initiation.
(§3) The following groups were constituted: • Lean rats (untreated; n=5-8) • ZSF1 rats (untreated; n=9-12) • ZSF1 treated with PXL770 (n=8-12).
(§4) The compound of Example 2, also known as PXL770 was administered by oral gavage at the dose of 150 mg/kg twice a day for 8 days (13 weeks of age) or 90 days (24-week old of age).
(§5) The PXL770 suspension was prepared at the concentrations used in the study (150 mg/kg) in the vehicle, i.e. carboxymethylcellulose 0.5%/Tween 80 (98/2).
At D8 and D90, glomerular filtration rate was determined with the fluorescent glomerular filtration rate tracer fluorescein isothiocyanate (FITC)-sinistrin using the transcutaneous glomerular filtration rate system (NIC-Kidney; Mannheim Pharma and Diagnostics GmbH, Mannheim, Germany) (Schock-Kusch D. et al., PLOS One 2013; 8, e71519). […]

obese ZSF1 rats [5] = test: Albuminuria in 15 h overnight urine of obese ZSF1 rats; type: in vivo, rat; conditions: 150 mg/kg oral gavage twice a day
Description: as §1, §2, §3, §4, §5
(§6) Randomly selected animals of each group (n=8-12) were placed in separate metabolic cages in order to collect 15 h over-night urine samples at D8 and D90. Albuminuria was determined as indicator of renal dysfunction using IDEXX Vetlab analyzer. Glycosuria was determined using IDEXX Vetlab analyzer. […]

obese ZSF1 rats [6] = test: Glycosuria in 15 h overnight urine of obese ZSF1 rats; type: in vivo, rat; conditions: 150 mg/kg oral gavage twice a day
Description: as §1, §2, §3, §4, §5, §6

obese ZSF1 rats [7] = test: Urine volume (15 h overnight, metabolic cages) of obese ZSF1 rats; type: in vivo, rat; conditions: 150 mg/kg oral gavage twice a day, 90 days, vs untreated ZSF1 rats
Description: as §1, §2, §3, §4, §5, §6

Compound: MK-8722
- Cardiac side effects [1]: known to trigger cardiac side effects

Compound: N#Cc1c(O)c2c(-c3ccc(-c4ccccc4O)cc3)csc2[nH]c1=O [Compound A-799662]
- Oral bioavailability [2]: poor oral bioavailability

Compound: O=C(O)c1c[nH]c2cc(Cl)c(-c3ccc(C4(O)CCC4)cc3)cc12 [PF-06409577]
- Efficacy in a preclinical model of diabetic nephropathy [3]: showed efficacy

Compound: O=c1[nH]c2sc(Cl)c(-c3ccc4c(c3O)CCCC4)c2c([O-])c1-c1ccccc1.[K+] [PXL770, monohydrate potassium salt of 2-chloro-4-hydroxy-3-(5-hydroxytetralin-6-yl)-5-phenyl-7H-thieno[2,3-b]pyridin-6-one]
- Glomerular filtration rate (GFR) (obese ZSF1 rats [4]): significantly prevented the decrease in GFR
- Albuminuria (urine albumin level) (obese ZSF1 rats [5]; 8 days (13 weeks of age), vs age-matched untreated ZSF1 rats): a decrease in albuminuria was observed
- Albuminuria (urine albumin level) (obese ZSF1 rats [5]; 90 days (24 weeks of age), vs untreated ZSF1 rats): significantly reduced
- Glycosuria (urine glucose level) (obese ZSF1 rats [6]; 8 days): reduced glycosuria
- Glycosuria (urine glucose level) (obese ZSF1 rats [6]; 90 days): reduced glycosuria
- Urine volume (obese ZSF1 rats [7]): decreased significantly urine volume
